Measurements from patent US20110014164A1, “EFFICIENT INDUCTION OF PLURIPOTENT STEM CELLS USING SMALL MOLECULE COMPOUNDS” (PRESIDENT AND FELLOWS OF HARVARD COLLEGE, priority 2008, published 2011).
Like-named read-outs stand apart in the source and are kept apart here.

Experiments:
[1] = system: MEFs infected with the four factors (Oct4, Sox2, Klf4 and c-Myc); format: cell-based, mouse
Description: FIG. 1(a) MEFs infected with the four factors (Oct4, Sox2, Klf4 and c-Myc) were treated with various chemicals for a week, the percentage of Oct4-GFP positive cells induced was measured through FACS analysis, and compared to infected MEFs without treatment or treated with DMSO (the solvent for Dexamethasone, SAHA and TSA). The chemicals used were: 5′-azaC (2 μM), dexamethasone (dex, 1 μM), 5′-azaC (2 μM) together with dexamethasone (1 μM), VPA (2 mM), SAHA (5 μM) and TSA (20 nM). n=4 for each treatment. For all figures in this study, standard deviations are indicated by error bars, and P values by two-tailed student t-test less than 0.05, 0.01 and 0.001 are indicated by one, two and three asterisks respectively.
To quantitate reprogramming efficiency, we established an assay based on Fluorescence-Activated Cell Sorting (FACS) analysis using an Oct4-GFP transgenic reporter, where the expression of the green fluorescent protein (GFP) is controlled by the promoter and enhancers of Oct4, a pluripotent marker gene^14.
MEFs were derived from e13.5 embryos hemizygous for the Oct4-GFP transgenic allele. Embryos were sexed by inspecting gonads for the pattern of Oct4-GFP expression. Gonads and internal organs were removed before processing the embryos for MEF isolation. To generate iPS cells that can be identified in mouse chimeras after blastocyst injection, we derived MEFs from e13.5 embryos that are hemizygous for Oct4-GFP and heterozygous for the Rosa26-lacZ reporter allele. MEFs were grown in DMEM supplemented with 10% FBS, L-glutamine, penicillin/streptoMycin, nonessential amino acids, and sodium pyruvate. MEFs in early passages (up to passage 5) were used for generation of iPS cells.
Moloney-based retroviral vector (pMXs) containing the murine complementary DNAs of Oct4, Sox2, c-Myc, and Klf4 were obtained from Addgene^1. These plasmids were co-transfected into 293T cells with packaging vectors (pUMVC and pCMV-VSVG), and viral supernatants were collected 48 hours post-transfection to infect MEFs. Two to three rounds of infection were performed during a 48 hour period. The first day after viral supernatants were removed was defined as 0 day post-infection. Infected MEFs were subsequently cultured in mouse ES cell media (Knockout DMEM supplemented with 15% Hyclone FBS, L-glutamine, penicillin/streptoMycin, nonessential amino acids, β-mercaptoethanol, and with 1000 U/ml LIF), and treated with small molecules or growth factors for a week starting from 1 or 2 days post-infection. […] All conditions were tested in quadruplicates.

[2] = system: MEFs infected with the four factors (Oct4, Sox2, Klf4 and c-Myc); experiment: cells; format: cell-based, mouse; settings: 4-factor infected MEFs

With `CC(/C=C/C(=O)NO)=C\[C@@H](C)C(=O)c1ccc(N(C)C)cc1` [TSA, trichostatin A] the “percentage of GFP positive cells” value ([1]; 20 nM, 4-factor infected MEFs) was “approximately 1.535% (±0.618%)”.

`N#CC(=C(/N)Sc1ccccc1N)/C(C#N)=C(\N)Sc1ccccc1N` [U0126] was tested, and the “effect on reprogramming efficiency” value [1] was “no significant effects”.

In the case of `C[C@@H]1C[C@H]2[C@@H]3CCC4=CC(=O)C=C[C@]4(C)[C@@]3(F)[C@@H](O)C[C@]2(C)[C@@]1(O)C(=O)CO` [dexamethasone], the “improvement of the effect of 5′-azaC when used in combination” value [1] is reported as 2.6 fold and the “effect on reprogramming efficiency” value ([1]; 1 μM alone, 4-factor infected MEFs) is reported as “no significant effect”.

In the case of `COc1cccc(-c2cc(=O)c3ccccc3o2)c1N` [PD98059], the “effect on reprogramming efficiency” value ([2]; 40 μM) is reported as “no significant effects”.

`O=C(CCCCCCC(=O)Nc1ccccc1)NO` [SAHA, suberoylanilide hydroxamic acid] was tested, and the “improvement over the control DMSO treatment” value ([1]; 5 μM, 4-factor infected MEFs) was 10 fold and the “percentage of GFP positive cells” value ([1]; 5 μM, 4-factor infected MEFs) was “approximately 0.198% (±0.102%)”.

For Wnt3a, the “effect on reprogramming efficiency” value ([2]; 100 ng/ml) was “no significant effect”.

With `CC(=O)O/N=C1/C(=C2/C(=O)Nc3cc(Br)ccc32)Nc2ccccc21` [BIO-Acetoxime] the “effect on reprogramming efficiency” value ([1]; 2 μM, 4-factor infected MEFs) was “no significant effect”.

B1: BMP4: recombinant human Bmp4 from Roche (protein, UniProt P12644 293-408, looked up)
Bone morphogenetic protein 4: SPKHHSQRARKKNKNCRRHSLYVDFSDVGWNDWIVAPPGYQAFYCHGDCPFPLADHLNSTNHAIVQTLVNSVNSSIPKACCVPTELSAISMLYLDEYDKVVLKNYQEMVVEGCGCR
With B1 the “effect on reprogramming efficiency” value ([2]; 100 ng/ml) was “had no effect”.
